Tests used:
Test in all cases: relative viability (nuclei count vs DMSO), 5 days (fraction); higher = more cells survive
Everolimus + Bortezomib = compound: CO[C@H]1C[C@@H]2CC[C@@H](C)[C@@](O)(O2)C(=O)C(=O)N2CCCC[C@H]2C(=O)O[C@H]([C@H](C)C[C@@H]2CC[C@@H](OCCO)[C@H](OC)C2)CC(=O)[C@H](C)/C=C(\C)[C@@H](O)[C@@H](OC)C(=O)[C@H](C)C[C@H](C)/C=C/C=C/C=C/1C [Everolimus] + CC(C)C[C@H](NC(=O)[C@H](Cc1ccccc1)NC(=O)c1cnccn1)B(O)O [Bortezomib] (partner 0.002 µM)
How it was run: (§1)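 Relative viability is defined as nuclei in treated wells over nuclei in vehicle wells. Duplicate plates were run and medians reported. Lung cancer cell lines in 1536-well plates were dosed by pin tool one day after seeding, with one drug or with a fixed anchor-drug dose plus five library-drug doses (not always all listed) in √10 steps, and nuclei were counted after 5 days.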

Everolimus + Palbociclib = compound: CO[C@H]1C[C@@H]2CC[C@@H](C)[C@@](O)(O2)C(=O)C(=O)N2CCCC[C@H]2C(=O)O[C@H]([C@H](C)C[C@@H]2CC[C@@H](OCCO)[C@H](OC)C2)CC(=O)[C@H](C)/C=C(\C)[C@@H](O)[C@@H](OC)C(=O)[C@H](C)C[C@H](C)/C=C/C=C/C=C/1C [Everolimus] + CC(=O)c1c(C)c2cnc(Nc3ccc(N4CCNCC4)cn3)nc2n(C2CCCC2)c1=O [Palbociclib] (partner 0.5 µM)
How it was run: as §1

Everolimus + Luminespib = compound: CO[C@H]1C[C@@H]2CC[C@@H](C)[C@@](O)(O2)C(=O)C(=O)N2CCCC[C@H]2C(=O)O[C@H]([C@H](C)C[C@@H]2CC[C@@H](OCCO)[C@H](OC)C2)CC(=O)[C@H](C)/C=C(\C)[C@@H](O)[C@@H](OC)C(=O)[C@H](C)C[C@H](C)/C=C/C=C/C=C/1C [Everolimus] + CCNC(=O)c1noc(-c2cc(C(C)C)c(O)cc2O)c1-c1ccc(CN2CCOCC2)cc1 [Luminespib] (partner 0.01 µM)
How it was run: as §1

Everolimus + Dasatinib = compound: CO[C@H]1C[C@@H]2CC[C@@H](C)[C@@](O)(O2)C(=O)C(=O)N2CCCC[C@H]2C(=O)O[C@H]([C@H](C)C[C@@H]2CC[C@@H](OCCO)[C@H](OC)C2)CC(=O)[C@H](C)/C=C(\C)[C@@H](O)[C@@H](OC)C(=O)[C@H](C)C[C@H](C)/C=C/C=C/C=C/1C [Everolimus] + Cc1nc(Nc2ncc(C(=O)Nc3c(C)cccc3Cl)s2)cc(N2CCN(CCO)CC2)n1 [Dasatinib] (partner 0.075 µM)
How it was run: as §1

| Cell Line | relative viability (Everolimus + Bortezomib; first compound 0.01 µM) | relative viability (Everolimus + Bortezomib; first compound 0.03162 µM) | relative viability (Everolimus + Bortezomib; first compound 0.1 µM) | relative viability (Everolimus + Bortezomib; first compound 0.3162 µM) | relative viability (Everolimus + Bortezomib; first compound 1 µM) | relative viability (Everolimus + Palbociclib; first compound 0.01 µM) | relative viability (Everolimus + Palbociclib; first compound 0.03162 µM) | relative viability (Everolimus + Palbociclib; first compound 0.1 µM) | relative viability (Everolimus + Palbociclib; first compound 0.3162 µM) | relative viability (Everolimus + Palbociclib; first compound 1 µM) | relative viability (Everolimus + Luminespib; first compound 0.01 µM) | relative viability (Everolimus + Luminespib; first compound 0.03162 µM) | relative viability (Everolimus + Luminespib; first compound 0.1 µM) | relative viability (Everolimus + Luminespib; first compound 0.3162 µM) | relative viability (Everolimus + Luminespib; first compound 1 µM) | relative viability (Everolimus + Dasatinib; first compound 0.01 µM) | relative viability (Everolimus + Dasatinib; first compound 0.03162 µM) | relative viability (Everolimus + Dasatinib; first compound 0.1 µM) | relative viability (Everolimus + Dasatinib; first compound 0.3162 µM) | relative viability (Everolimus + Dasatinib; first compound 1 µM) |
| --- | --- | --- | --- | --- | --- | --- | --- | --- | --- | --- | --- | --- | --- | --- | --- | --- | --- | --- | --- | --- |
| LC-2-ad | 1.05 | 1.1 | 0.997 | 0.943 | 1 | 0.543 | 0.572 | 0.564 | 0.561 | 0.475 | 1.17 | 1.05 | 0.832 | 1.08 | 0.892 | 0.544 | 0.51 | 0.515 | 0.427 | 0.505 |
| NCI-H1793 | – | – | – | – | – | 0.219 | 0.19 | 0.246 | 0.214 | 0.166 | 0.151 | 0.149 | 0.139 | 0.152 | 0.113 | 0.23 | 0.256 | 0.209 | 0.214 | 0.162 |
| HCC-827 | 0.995 | 1.19 | 1.07 | 1.16 | 1.09 | 0.459 | 0.409 | 0.331 | 0.479 | 0.277 | 0.346 | 0.33 | 0.204 | 0.203 | 0.199 | 0.221 | 0.331 | 0.2 | 0.168 | 0.17 |
| HCC-78 | 0.428 | 0.375 | 0.384 | 0.371 | 0.314 | 0.477 | 0.489 | 0.513 | 0.485 | 0.379 | – | – | – | – | – | 0.328 | 0.291 | 0.248 | 0.263 | 0.343 |
| NCI-H2085 | 0.956 | 0.827 | 0.726 | 0.805 | 0.711 | 0.413 | 0.362 | 0.347 | 0.335 | 0.284 | 0.258 | 0.28 | 0.349 | 0.319 | 0.304 | 0.237 | 0.232 | 0.254 | 0.215 | 0.234 |
| PC-14 | 0.876 | 0.84 | 0.864 | 0.658 | 0.713 | 0.43 | 0.368 | 0.336 | 0.301 | 0.295 | 0.175 | 0.171 | 0.145 | 0.171 | 0.191 | 0.23 | 0.168 | 0.216 | 0.237 | 0.177 |
| NCI-H1648 | – | – | – | – | – | 0.257 | 0.21 | 0.259 | 0.22 | 0.222 | – | – | – | – | – | – | – | – | – | – |
| A-427 | 0.783 | 0.891 | 0.778 | 0.742 | 0.768 | 0.474 | 0.546 | 0.445 | 0.48 | 0.557 | 0.584 | 0.611 | 0.651 | 0.779 | 0.729 | 0.527 | 0.526 | 0.397 | 0.462 | 0.489 |
| HCC-44 | 0.978 | 0.958 | 0.937 | 1.08 | 0.858 | 1.01 | 1 | 0.997 | 1.07 | 1.1 | 1.02 | 0.851 | 1.05 | 0.938 | 1.56 | – | – | – | – | – |
| NCI-H358 | – | – | – | – | – | 0.136 | 0.15 | 0.129 | 0.11 | 0.128 | 0.325 | 0.237 | 0.196 | 0.214 | 0.206 | 0.115 | 0.138 | 0.133 | 0.0942 | 0.114 |
| IA-LM | 0.209 | 0.255 | 0.305 | 0.439 | 0.405 | – | – | – | – | – | – | – | – | – | – | – | – | – | – | – |
| EBC-1 | 0.344 | 0.406 | 0.314 | 0.424 | 0.255 | – | – | – | – | – | – | – | – | – | – | – | – | – | – | – |
| NCI-H1299 | 1.04 | 1.08 | 1.02 | 1.07 | 1.1 | – | – | – | – | – | – | – | – | – | – | – | – | – | – | – |
| NCI-H596 | 0.813 | 0.716 | 0.658 | 0.612 | 0.589 | – | – | – | – | – | 0.636 | 0.5 | 0.379 | 0.533 | 0.519 | 0.395 | 0.428 | 0.392 | 0.462 | 0.482 |
| SK-MES-1 | – | – | – | – | – | 0.239 | 0.264 | 0.258 | 0.273 | 0.243 | 0.347 | 0.383 | 0.329 | 0.281 | 0.331 | 0.357 | 0.339 | 0.398 | 0.346 | 0.331 |
| Calu-6 | 0.91 | 0.9 | 0.901 | 0.937 | 0.78 | – | – | – | – | – | – | – | – | – | – | – | – | – | – | – |
| NCI-H522 | – | – | – | – | – | 0.793 | 0.701 | 0.62 | 0.603 | 0.597 | 0.841 | 0.631 | 0.767 | 0.738 | 0.811 | 0.776 | 0.624 | 0.629 | 0.71 | 0.724 |
| NCI-H1703 | 0.183 | 0.178 | 0.212 | 0.213 | 0.186 | – | – | – | – | – | – | – | – | – | – | – | – | – | – | – |
| NCI-H1944 | – | – | – | – | – | 0.214 | 0.195 | 0.196 | 0.23 | 0.202 | 0.436 | 0.447 | 0.374 | 0.429 | 0.345 | 0.179 | 0.193 | 0.157 | 0.184 | 0.157 |
| NCI-H1563 | 0.665 | 0.724 | 0.762 | 0.715 | 0.704 | – | – | – | – | – | 0.54 | 0.479 | 0.548 | 0.501 | 0.496 | 0.434 | 0.419 | 0.462 | 0.464 | 0.437 |
| NCI-H1395 | – | – | – | – | – | 0.482 | 0.444 | 0.466 | 0.515 | 0.429 | 0.581 | 0.522 | 0.532 | 0.449 | 0.537 | 0.345 | 0.396 | 0.395 | 0.358 | 0.336 |
| NCI-H2170 | – | – | – | – | – | 0.195 | 0.187 | 0.162 | 0.16 | 0.186 | 0.291 | 0.175 | 0.229 | 0.316 | 0.198 | 0.366 | 0.292 | 0.312 | 0.302 | 0.262 |
